Reference: ChEMBL document CHEMBL1201862, “PubChem BioAssay data set” (2004)
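Tested at 5 concentrations; 48 h exposure; 96-well plates; endpoints linearly interpolated, else capped at highest concentration. Abbreviation: GI50, concentration required for 50% inhibition of growth.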 Calls of active or inactive are those of the source. No stated cut-off is given here; in the data, active = GI50 up to about 1.1 µM and inactive = higher. Non-standard residues stand in square brackets, D forms with d. Residues, ends and D or L forms follow the SMILES beside them. ξ: configuration not given here. *: point of attachment. NMeY = CN[C@@H](Cc1ccc(O)cc1)C(=O)O; Cbz = O=C(OCc1ccccc1)*; ξA = CC(N)C(=O)O

Key:
Assay in all cases: NCI anticancer screen, dose series, 48 h
PC-3 = tested on: PC-3
UACC-257 = tested on: UACC-257
HL-60 = tested on: HL-60
786-0 = tested on: 786-0
IGROV-1 = tested on: IGROV-1
SR = tested on: SR
HCT-116 = tested on: HCT-116
MCF7 = tested on: MCF7
Hs-578T = tested on: Hs-578T
MDA-N = tested on: MDA-N
NCI-H460 = tested on: NCI-H460
KM12 = tested on: KM12
SNB-75 = tested on: SNB-75
SF-539 = tested on: SF-539
BT-549 = tested on: BT-549
LOX IMVI = tested on: LOX IMVI
OVCAR-3 = tested on: OVCAR-3
DU-145 = tested on: DU-145
HCT-15 = tested on: HCT-15
K562 = tested on: K562

SMILES	GI50 (PC-3)	GI50 (UACC-257)	GI50 (HL-60)	GI50 (786-0)	GI50 (IGROV-1)	GI50 (SR)	GI50 (HCT-116)	GI50 (MCF7)	GI50 (Hs-578T)	GI50 (MDA-N)	GI50 (NCI-H460)	GI50 (KM12)	GI50 (SNB-75)	GI50 (SF-539)	GI50 (BT-549)	GI50 (LOX IMVI)	GI50 (OVCAR-3)	GI50 (DU-145)	GI50 (HCT-15) [µM]	GI50 (K562)
COC(=O)CN(CC1O[C@@H]2OC(C)(C)O[C@@H]2C1NC(C)=O)C(=O)OCc1ccccc1 (stereo not given in full)	> 100 µM (inactive)	> 100 µM (inactive)	> 100 µM (inactive)	> 100 µM (inactive)	> 100 µM (inactive)	> 100 µM (inactive)	> 100 µM (inactive)	> 100 µM (inactive)	> 100 µM (inactive)	> 100 µM (inactive)	> 100 µM (inactive)	> 100 µM (inactive)	> 100 µM (inactive)	> 100 µM (inactive)	59.8 µM (inactive)	> 100 µM (inactive)	> 100 µM (inactive)	> 100 µM (inactive)	> 100	> 100 µM (inactive)
CCCCCCCCCCCCCCCCCCNc1ccn(C2OC(CO)C(OP(=O)(O)OCC(COP(=O)(O)OCC3OC(n4cc(F)c(NCCCCCCCCCCCCCCCCCC)nc4=O)CC3O)OC(=O)CCCCCCCCCCCCCCC)C2O)c(=O)n1 (stereo not given)	> 100 µM (inactive)	> 100 µM (inactive)	67.1 µM (inactive)	> 100 µM (inactive)	> 100 µM (inactive)	> 100 µM (inactive)	> 100 µM (inactive)	> 100 µM (inactive)	> 100 µM (inactive)	> 100 µM (inactive)	> 100 µM (inactive)	> 100 µM (inactive)	> 100 µM (inactive)	> 100 µM (inactive)	> 100 µM (inactive)	> 100 µM (inactive)	> 100 µM (inactive)	> 100 µM (inactive)	> 100	3.01 µM (inactive)
Cc1ccc2nc(Cl)c(/C=N/N3C(=O)/C(=C/c4ccccc4S)N=C3c3ccccc3)cc2c1	38.3 µM (inactive)	68.5 µM (inactive)	15.5 µM (inactive)	54 µM (inactive)	29.1 µM (inactive)	7.96 µM (inactive)	30.1 µM (inactive)	26.9 µM (inactive)	22.3 µM (inactive)	17 µM (inactive)	31.4 µM (inactive)	25.5 µM (inactive)	22.1 µM (inactive)	15.2 µM (inactive)	49.5 µM (inactive)	34.8 µM (inactive)	4.8 µM (inactive)	53.3 µM (inactive)	37.8	11.7 µM (inactive)
COc1ccc(C[C@@H](C(=O)NCC(N)=O)N(C)C(=O)[C@@H]2CCCN2C(=O)[C@H](CC(C)C)NC(=O)C(C)NC(=O)OCc2ccccc2)cc1 (stereo not given in full) (Cbz-[ξA]LP[NMeY](Me)G-NH2)	> 100 µM (inactive)	> 100 µM (inactive)	> 100 µM (inactive)	> 100 µM (inactive)	> 100 µM (inactive)	> 100 µM (inactive)	> 100 µM (inactive)	> 100 µM (inactive)	> 100 µM (inactive)	> 100 µM (inactive)	> 100 µM (inactive)	> 100 µM (inactive)	> 100 µM (inactive)	> 100 µM (inactive)	> 100 µM (inactive)	> 100 µM (inactive)	> 100 µM (inactive)	> 100 µM (inactive)	> 100	> 100 µM (inactive)
COc1ccc(C2SCC(=O)N2NC(=O)C(C)Oc2ccc(Cl)cc2Cl)cc1 (stereo not given)	27.4 µM (inactive)	42.4 µM (inactive)	14.2 µM (inactive)	20.3 µM (inactive)	37 µM (inactive)	< 0.01 µM (active)	36.6 µM (inactive)	32.1 µM (inactive)	34.5 µM (inactive)	83 µM (inactive)	81.1 µM (inactive)	55.1 µM (inactive)	22 µM (inactive)	17 µM (inactive)	23.7 µM (inactive)	41.1 µM (inactive)	66.2 µM (inactive)	53 µM (inactive)	> 100	27 µM (inactive)
CC(C)(C)OC(=O)N1CC(CCl)c2ccc(O)cc21 (stereo not given)	1.87 µM (inactive)	2.01 µM (inactive)	1.87 µM (inactive)	3.74 µM (inactive)	3.84 µM (inactive)	1.45 µM (inactive)	2.64 µM (inactive)	0.753 µM (active)	2.8 µM (inactive)	1.86 µM (inactive)	2.67 µM (inactive)	2.1 µM (inactive)	1.39 µM (inactive)	2.16 µM (inactive)	1.97 µM (inactive)	1.76 µM (inactive)	2.51 µM (inactive)	0.589 µM (active)	2.59	2.87 µM (inactive)
Cc1csc2c(P(=O)(OC(C)C)OC(C)C)c(-c3ccccc3)cn12	14.8 µM (inactive)	14 µM (inactive)	19 µM (inactive)	15.7 µM (inactive)	15.4 µM (inactive)	16.6 µM (inactive)	14.2 µM (inactive)	17.7 µM (inactive)	17.1 µM (inactive)	17.9 µM (inactive)	16.5 µM (inactive)	16.8 µM (inactive)	14.5 µM (inactive)	18.3 µM (inactive)	18.8 µM (inactive)	13.6 µM (inactive)	14.4 µM (inactive)	18.5 µM (inactive)	15.9	17.6 µM (inactive)
COc1ccc(-n2c(=O)n(C)c(=O)n2-c2ccc(OC)cc2)cc1	> 100 µM (inactive)	> 100 µM (inactive)	> 100 µM (inactive)	> 100 µM (inactive)	> 100 µM (inactive)	> 100 µM (inactive)	98.6 µM (inactive)	> 100 µM (inactive)	9.48 µM (inactive)	> 100 µM (inactive)	> 100 µM (inactive)	> 100 µM (inactive)	56.6 µM (inactive)	> 100 µM (inactive)	> 100 µM (inactive)	59.2 µM (inactive)	> 100 µM (inactive)	> 100 µM (inactive)	> 100	> 100 µM (inactive)
